# According to patent US6284799A, “Cancer treatment” (priority 1996, dated 2001):
# Like-named read-outs stand apart in the source and are kept apart here.
# Experiments:
# [1] = test system: C-3 fibrosarcoma cells; test: tumor promotion in mice injected with C-3 fibrosarcoma cells; assay type: in vivo, C3H mice; conditions: for tumor growth: C-3 fibrosarcoma, FIG. 7, FIG. 9; for animals with tumors by day 5: n=10 per group, no controls had tumors
# From the text: The experiments were blinded so that the individual measuring the first appearance of palpable tumor was unaware of the treatment group (saline control vs antidepressant drug; n=10 in each group),
# [2] = test system: concanavalin A-stimulated normal lymphocytes; test: proliferation of concanavalin A-stimulated normal lymphocytes; assay type: cell-based
# [3] = test system: HIC; test: inhibition of histamine binding to HIC in microsomes; set-up: species or system rat
# [4] = biological target: ^3 H-DPPE binding (HIC) in rat liver microsomes; test: competition for 3H-DPPE binding in liver microsomes
# [5] = test system: HIC; test: competition for 3H-histamine binding to HIC in brain membranes; set-up: species or system rat; conditions: for Ki: rat cortical membranes
# [6] = test system: phorbol myristate acetate (PMA)-induced platelet aggregation; test: PMA-induced platelet aggregation; assay type: cell-based; conditions: for IC50: Platelet, read-out: IC50, antagonism of PMA-induced platelet aggregation
# [7] = test system: MCF-7 human breast cancer cells; conditions: MCF7, 168 h, read-out: IC50 value, inhibit/kill growth of MCF-7 cells
# [8] = test system: rat uterus; conditions: cited from earlier work
# [9] = clinically relevant doses to enhance chemotherapy, about 0.2-12 mg/kg; cited from earlier work
# [10] = test system: L5178Y lymphoma cells; test: tumor-promoting effect in DBA/2 mice inoculated subcutaneously with L5178Y lymphoma cells; assay type: in vivo
# From the text: A second group of 7 tumor cell-inoculated mice served as controls (saline injections, once daily×1). By day 14, 7/7 DPPE treated animals had palpable tumors as compared to 4/7 controls. At the end of 4 weeks, 6/7 controls had tumors with an aggregate surface area of 14.5 cm^2 (mean=2.1±0.8 cm^2 /animal), while 7/7 DPPE-treated animals had tumors with an aggregate surface area of 38.4 cm^2 (mean=5.5±0.7 cm^2 /animal). Thus, the tumor burden of DPPE-treatedanimals was approximately 2.5-fold greater than that of controls.
# [11] = test system: PMA-induced inflammation in skin; test: PMA-induced skin inflammation in DBA/2 mice; assay type: in vivo
# Experimental: To investigate any effect of DPPE to increase PMA-induced inflammation in the same strain of mice (DBA/2), groups of 3 animals were shaved over the back and 48 hours later received a single topical application of […] PMA in acetone. The PMA-treated mice then received either saline (control) or DPPE (4 or 32 mg/kg at time 0 and 24 hours). Three animals painted with acetone served as vehicle controls. Forty-eight hours later, the various groups were sacrificed by CO2 asphyxiation, the skin carefully excised, pinned to paper strips to prevent, wrinkling, and immersed in formaldehyde. H and E-stained sections of skin were assessed for degree of inflammation.
# Indeed, since tumor promotion requires the presence of inflammatory response, and can be blocked by agents which inhibit inflammation by definition, DPPE functions as a co-promoter with PMA.
# [12] = 1 mg/kg s.c. once daily x3, end of 4 weeks
smiles,measurement,setting,value
CC(C)NC[C@H](O)COc1cccc2ccccc12 (racemic) [propanolol],tumor weight on Day 23,"[1]; C-3 fibrosarcoma murine model, FIG. 7",significantly increased tumor weight
same,inhibition of lymphocyte proliferation / mitogenesis,[2],inhibits normal lymphocyte mitogenesis
COc1ccc(CCN2CCC(Nc3nc4ccccc4n3Cc3ccc(F)cc3)CC2)cc1 [Astemizole],inhibition of histamine binding to HIC,[3],potent to inhibit histamine binding
same,tumor growth,[1],potently stimulate the growth
same,inhibition of lymphocyte proliferation / mitogenesis,[2],potent to inhibit
"CCN(CC)CCOc1ccc(C(=O)c2ccc(F)cc2)cc1 [DFPE, N,N=diethyl-2-[4-(4'-fluorophenone)phenoxy] ethanamine]",Ki,"[4]; rat liver microsomes, read-out: KI value, competition for [^3 H] DPPE binding",~0.07 µM
same,potency relative to DPPE in inhibiting histamine binding at HIC,[5]; brain membranes,approximately three times more potent
same,potency relative to DPPE in HIC binding competition assays,[5]; inhibiting normal cell proliferation and promoting malignant cell proliferation,two to four times that of DPPE
same,Ki,[5],0.3 µM
same,potency relative to DPPE in antagonizing PMA-induced platelet aggregation,[6],approximately four times more potent
same,IC50,[6],20 µM
same,IC50,[7],3 µM
"CCN(CC)CCOc1ccc(Cc2ccccc2)cc1 [DPPE, N,N-diethyl-2-[4-(phenylmethyl)-phenoxy] ethanamine]",Kd,[4]; ^3 H-DPPE binding in liver microsomes,0.065 µM
same,Ki,[5],0.9 µM
same,antiestrogenic activity in vivo,[8],antiestrogenic in vivo
same,effect on tamoxifen action in the rat uterus in vivo,[8],augment the effects of tamoxifen
same,serious toxic effects in humans,[9],does not cause serious toxic effects
same,IC50,[6],80 µM
same,IC50,[7],6.5 µM
same,animals with palpable tumors by day 14,"[10]; 1 mg/kg (4 mg/M^2) s.c. once daily x3, day 14, n=7",7/7
same,animals with tumors at the end of 4 weeks,"[10]; 1 mg/kg s.c. once daily x3, 4 weeks, n=7",7/7
same,aggregate tumor surface area,[10]; [12],38.4 cm^2
same,mean tumor surface area per animal,[10]; [12],5.5±0.7 cm^2 /animal
same,tumor burden relative to controls,"[10]; end of 4 weeks, versus saline controls",approximately 2.5 fold
same,"inflammatory response to PMA, high dose",[11]; 32 mg/kg (128 mg/M^2),most intense inflammatory response
same,mitotic activity in the epithelial layer,"[11]; 32 mg/kg, versus PMA and saline-treated groups",increased mitotic activity
same,inflammatory response to PMA,"[11]; 4 or 32 mg/kg at time 0 and 24 hours, skin assessed at 48 hours, versus saline or acetone controls",significantly greater inflammatory response
same,inhibition of lymphocyte proliferation / mitogenesis,[2],inhibit
CN(C)CCC=C1c2ccccc2CCc2ccccc21 [amitriptyline],Ki,"[4]; liver microsomes, FIG. 2, read-out: K1 to compete for ^3 H-DPPE binding",10 µM
same,animals with tumors by day 5,[1],4/10
same,IC50,"[2]; Lymphocyte, in the absence of cytotoxicity, FIG. 5, read-out: IC50, inhibition of proliferation",10 to 20 µM
CNCCC(Oc1ccc(C(F)(F)F)cc1)c1ccccc1 (stereo not shown) [fluoxetine],animals with tumors by day 5,[1],4/10
CCOC(=O)N1CCC(=C2c3ccc(Cl)cc3CCc3cccnc32)CC1 [loratidine],tumor growth,[1],potently promoted tumor growth
same,inhibition of lymphocyte proliferation / mitogenesis,[2],inhibited concanavalin A-stimulated mitogenesis
